Measurements taken from patent US20260085293A1, “SOLUTION AND METHOD FOR TRANSPORTING OR STORING BODY FLUID SAMPLE” (PROVIGATE INC., priority 2023, published 2026).

Tested on: glycoalbumin
Assay: Relative GA value of diluted pool serum with active ingredient after 2 days at 37° C., assayed by HPLC
Parameters: species or system human
Method: Examples will now be described. Blood samples were diluted with diluents containing active ingredients according to the embodiments of the present disclosure, and the GA values thereof were assayed by HPLC on the same day and after two days.
First, a solution containing 10 mM of HEPES and 150 mM of NaCl was prepared. The pH was 8.0. Into this solution, an active ingredient was mixed to prepare a diluent.
In Examples 1 to 4, pool serum was used as the blood samples. The pool serum was prepared by isolating serum from venous blood taken from multiple healthy subjects and then mixing. The resulting product was mixed with the diluent described above. Into 90 μL of the diluent, 10 μL of the blood serum was introduced to prepare a 10-fold dilution (10×) assay sample.
The sample was assayed on the same day (“day 0”) or was stored in a 37° C. constant temperature reservoir for two days (“day 2”) and then assayed.
For the assay conditions, “GA detection by HPLC method” J Chromatogr 597, 271-275 (1992) was referred. Columns used were AEX:Shodex-Asahipak ES-502N (7.5 mm ID ×100 mm) (Showa Denko K.K.) and BAC:TSKgel Boronate-5PW (4.6 mm ID×100 mm) (TOSOH CORPORATION). The eluents used were glycine (JIS special grade), magnesium chloride hexahydrate (JIS special grade), D(−)-sorbitol (Wako 1st grade), ethanol (99.5%, JIS special grade), tris(hydroxymethyl)aminomethane (Tris, Biotechnology grade), and EDTA-2Na. For the analysis, Prominence HPLC system (Shimadzu Corporation) equipped with a system controller was used.
In the graphs indicated in FIGS. 2 to 5, the vertical axis indicates the ratio (relative GA value) of the GA value assayed two days (day 2) after the preparation to the GA value measured on the same day (day 0) as the preparation. When assay was carried out multiple times, the average value is indicated.
Each of the additives was dissolved in the diluent to a predetermined concentration (0.1% to 0.5%) in w/v. For example, specifically, 570 μL of the diluent containing each additive was added to 30 μL of pool serum to prepare a 20× diluted liquid. The GA% of the day 0 sample and that of the day 2 sample left to stand still for 2 days in a 37° C. constant temperature reservoir were assayed by using HPLC.

[1] = 0.1 w/v% active ingredient in diluent
[2] = 0.2 w/v% active ingredient in diluent

Compound | relative GA value (day 2 / day 0) [1] | relative GA value (day 2 / day 0) [2] | relative GA value (day 2 / day 0), in words (0.5 w/v% active ingredient in diluent, not illustrated)
[H]/N=C(/N)N[C@H]1[C@H](O)[C@@H](O)[C@H](O[C@@H]2O[C@@H](C)[C@](O)(C=O)[C@H]2O[C@@H]2O[C@@H](CO)[C@H](O)[C@@H](O)[C@@H]2NC)[C@@H](N/C(N)=N\[H])[C@@H]1O [STR, streptomycin, reference compound] | about 100% | about 102% | 
OC[C@H]1O[C@H](O[C@H]2[C@H](O)[C@@H](O)[C@@H](O[C@H]3[C@H](O)[C@@H](O)C(O)O[C@@H]3CO)O[C@@H]2CO)[C@H](O)[C@@H](O)[C@@H]1O (mixture of isomers) [MT, maltotriose] | about 98.2 | about 99.8 | excessively large
CN[C@@H]1[C@@H](O)[C@@H](O[C@@H]2[C@@H](O)[C@H](O[C@H]3O[C@H]([C@@H](C)O)[C@@H](O)[C@H](O)[C@H]3N)[C@@H](N)C[C@H]2N)OC[C@]1(C)O [G418, reference compound] | about 98.2 | about 98.2 | 
CC(=O)N[C@H]1C(O)O[C@H](CO)[C@@H](O)[C@@H]1O[C@H](C)C(=O)O (stereo partly drawn) [NAM, N-acetylmuramic acid] | about 98.5 | about 99.0 | 
